Measured values from US8431704B2, “Quinoline or isoquinoline substituted P2X7 antagonists” (Janssen Pharmaceutica NV, priority 2008, dated 2013).

These molecules were tested against T1, P2X7 (Homo sapiens, UniProt Q99572) (assay: THP-1 YoPro uptake assay (BzATP-stimulated Yo-Pro-1 uptake)). Settings: Table F-10, THP-1 cells, read-out: mean pIC50 values for P2X7 antagonism (converted).
T1 construct: endogenous in cells; host or cells: THP-1 human monocytic cell line
T1 sequence (Q99572 1-595): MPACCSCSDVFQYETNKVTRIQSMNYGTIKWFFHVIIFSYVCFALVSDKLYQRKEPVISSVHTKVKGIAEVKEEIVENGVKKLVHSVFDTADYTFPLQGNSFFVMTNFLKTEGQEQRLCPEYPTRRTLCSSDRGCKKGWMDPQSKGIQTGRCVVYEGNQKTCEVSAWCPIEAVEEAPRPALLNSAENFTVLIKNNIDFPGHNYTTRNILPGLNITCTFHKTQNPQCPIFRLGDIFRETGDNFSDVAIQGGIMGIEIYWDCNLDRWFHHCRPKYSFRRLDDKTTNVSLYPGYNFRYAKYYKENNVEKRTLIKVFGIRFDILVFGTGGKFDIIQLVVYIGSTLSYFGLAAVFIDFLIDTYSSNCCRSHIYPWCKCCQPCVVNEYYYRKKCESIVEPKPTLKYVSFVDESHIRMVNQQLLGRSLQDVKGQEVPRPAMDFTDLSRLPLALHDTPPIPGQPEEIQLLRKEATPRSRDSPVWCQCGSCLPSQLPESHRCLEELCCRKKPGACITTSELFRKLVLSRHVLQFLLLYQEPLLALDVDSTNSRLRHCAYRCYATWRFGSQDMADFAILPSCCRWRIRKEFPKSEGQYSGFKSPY
Format: cell-based
Experimental: The human monocytic cell line THP-1 was grown as a suspension culture in RPMI medium supplemented with 10% fetal bovine serum, penicillin/streptomycin (50 units/mL), 2 mM L-glutamine, and 20 μM 2-mercaptoethanol. Cells were maintained at a density below 0.5 million per mL. On the day of the assay, cells were washed twice with assay buffer, and then resuspended at 2 million per mL in assay buffer containing 2 μM Yo-Pro-1 (Invitrogen). The assay buffer contained (in mM): 280 sucrose, 5 KCl, 10 glucose, 10 HEPES, 5 N-methyl-D-glucamine. The cells were added at 200 k/well into poly-D-lysine-coated black-walled 96-well plates (Biocoat, Becton-Dickinson). Test compounds were dissolved in DMSO, and then added at the test concentration to each well of the 96-well plate. Concentration dependence of block was determined by exposing each well of cells in duplicate rows of a 96-well plate to a serial dilution of test compound. The concentration series usually started at 10 μM with a three-fold decrement in concentration. The final DMSO concentration seen by the cells was less than 0.5%. Cells were incubated with test compounds for 30 minutes at 37° C. A background reading was taken using a Gemini SpectraMax with 490 nm excitation and 530 nm emission. […] After incubation for 60 minutes at 37° C., an endpoint read was taken in the SpectraMax plate reader. The amount of block of the response was determined by comparing the fluorescence intensity in each well to the average of control wells on each plate. The control wells contained either a known antagonist of P2X7 (positive controls) or a concentration of DMSO equal to that in the test wells. Data were analyzed using a nonlinear regression program (Origin, OriginLab, MA). Results are reported as the −log of the IC50 (pIC50).

| SMILES | IC50 [nM] |
| --- | --- |
| O=C(NCC(c1cnc(C(F)(F)F)nc1)N1CCC(F)(F)CC1)c1c(Cl)ccc2nc(N3C[C@@H]4C[C@H]3CO4)ccc12 (some centres unmarked) [Compound 530] | 2.63 |
| O=C(NCC(c1cnc(C(F)(F)F)nc1)N1CCC(F)(F)CC1)c1c(Cl)ccc2nc(N3CCC4(CCCN4)C3)ccc12 (centres unmarked) [Compound 531] | 3.02 |
| NCCNc1ccc2c(C(=O)NCC(c3cnc(C(F)(F)F)nc3)N3CCCCC3)c(Cl)ccc2n1 (centres unmarked) [Compound 545] | 1.45 |
| O=C(NCC(c1cnc(C(F)(F)F)nc1)N1CCCCC1)c1c(Cl)ccc2nc(N3CCC(O)CC3)ccc12 (centres unmarked) [Compound 546] | 4.79 |
| O=C(NCC(c1cnc(C(F)(F)F)nc1)N1CCCCC1)c1c(Cl)ccc2nc(NCCO)ccc12 (centres unmarked) [Compound 547] | 3.47 |
| O=C(NCC(c1cnc(C(F)(F)F)nc1)N1CCCCC1)c1c(Cl)ccc2nc(N3CCOCC3)ccc12 (centres unmarked) [Compound 548] | 1.91 |
| O=C(NCC(c1cnc(C(F)(F)F)nc1)N1CCCCC1)c1c(Cl)ccc2nc(N3CCNCC3)ccc12 (centres unmarked) [Compound 549] | 3.39 |
| O=C(NCC(c1cnc(C(F)(F)F)nc1)N1CCCCC1)c1c(Cl)ccc2nc(NCC(O)CO)ccc12 (centres unmarked) [Compound 550] | 2.34 |
| CS(=O)(=O)N[C@H]1CCN(c2ccc3c(C(=O)NCC(c4cnc(C(F)(F)F)nc4)N4CCOCC4)c(Cl)ccc3n2)C1 (some centres unmarked) [Compound 551] | 14.8 |
| CS(=O)(=O)N[C@@H]1CCN(c2ccc3c(C(=O)NCC(c4cnc(C(F)(F)F)nc4)N4CCOCC4)c(Cl)ccc3n2)C1 (some centres unmarked) [Compound 552] | 17.8 |
| CS(=O)(=O)NCCNc1ccc2c(C(=O)NCC(c3cnc(C(F)(F)F)nc3)N3CCOCC3)c(Cl)ccc2n1 (centres unmarked) [Compound 553] | 17.4 |
| O=C(NCC(c1cnc(C(F)(F)F)nc1)N1CCOCC1)c1c(Cl)ccc2nc(NC3CCOCC3)ccc12 (centres unmarked) [Compound 554] | 12.6 |
| CC(=O)NC1CC2CCC(C1)N2c1ccc2c(C(=O)NCC(c3cnc(C(F)(F)F)nc3)N3CCOCC3)c(Cl)ccc2n1 (centres unmarked) [Compound 555] | 16.2 |
| CN[C@H]1CCN(c2ccc3c(C(=O)NCC(c4cnc(C(F)(F)F)nc4)N4CCOCC4)c(Cl)ccc3n2)C1 (some centres unmarked) [Compound 556] | 1.15 |
| NCCNc1ccc2c(C(=O)NCC(c3cnc(C(F)(F)F)nc3)N3CCOCC3)c(Cl)ccc2n1 (centres unmarked) [Compound 557] | 1.12 |
| O=C(NCC(c1cnc(C(F)(F)F)nc1)N1CCOCC1)c1c(Cl)ccc2nc(N3CC4CNCC4C3)ccc12 (centres unmarked) [Compound 558] | 2.51 |
| O=C(NCC(c1cnc(C(F)(F)F)nc1)N1CCOCC1)c1c(Cl)ccc2nc(N3CCC4CNCC43)ccc12 (centres unmarked) [Compound 559] | 3.63 |
| O=C(NCC(c1cnc(C(F)(F)F)nc1)N1CCOCC1)c1c(Cl)ccc2nc(N3CC4CCNC4C3)ccc12 (centres unmarked) [Compound 560] | 4.9 |
| N[C@@H]1CCN(c2ccc3c(C(=O)NCC(c4cnc(C(F)(F)F)nc4)N4CCOCC4)c(Cl)ccc3n2)C1 (some centres unmarked) [Compound 561] | 1.35 |
| CN[C@@H]1CCN(c2ccc3c(C(=O)NCC(c4cnc(C(F)(F)F)nc4)N4CCOCC4)c(Cl)ccc3n2)C1 (some centres unmarked) [Compound 562] | 4.9 |
| N[C@H]1CCN(c2ccc3c(C(=O)NCC(c4cnc(C(F)(F)F)nc4)N4CCOCC4)c(Cl)ccc3n2)C1 (some centres unmarked) [Compound 563] | 0.851 |
| O=C(NCC(c1cnc(C(F)(F)F)nc1)N1CCOCC1)c1c(Cl)ccc2nc(N3C[C@@H]4CCCN[C@@H]4C3)ccc12 (some centres unmarked) [Compound 564] | 7.41 |
| O=C(NCC(c1cnc(C(F)(F)F)nc1)N1CCOCC1)c1c(Cl)ccc2nc(N3CC4CNC4C3)ccc12 (centres unmarked) [Compound 565] | 2.57 |
| CSc1ncc(C(CNC(=O)c2c(Cl)ccc3ncccc23)N2CCC(F)(F)CC2)cn1 (centres unmarked) [Compound 582, 6-chloro-quinoline-5-carboxylic acid [2-(4,4-difluoro-piperidin-1-yl)-2-(2-methylsulfanyl-pyrimidin-5-yl)-ethyl]-amide] | 10.7 |
| O=C(NCC(c1cnc(C(F)(F)F)nc1)N1CCC(F)(F)CC1)c1c(Cl)ccc2nc(O)ccc12 (centres unmarked) [Compound 593] | 112 |
| Nc1ccc2c(C(=O)NCC(c3cnc(C(F)(F)F)nc3)N3CCC(F)(F)CC3)c(Cl)ccc2n1 (centres unmarked) [Compound 596] | 3.55 |
